Tests used:
Type in all cases: cell-based
CDK1 = molecular target: T1, CDK1 (Homo sapiens, UniProt P06493); experiment: CDK1 degradation by immunoblotting in OVCAR-8 cells; conditions: 24 h
T1 construct: endogenous in cells; host or cells: OVCAR-8
Procedure: (§1) CDK2 and CDK1 Degradation by Immunoblotting
(§2) Ovarian cancer cell line OVCAR-8 were cultured in 12-well plates in complete growth medium. A serial dilution of each compound was added to individual wells from a 2× stock solution, and cells were cultured for 24 hours. Cells were collected by centrifugation, and cell pellets lysed with addition of chilled RIPA buffer supplemented with protease/phosphatase inhibitors followed by incubation for 20 minutes on ice. Lysates were clarified by centrifugation and 5×SDS loading buffer was added to the supernatant followed by heating to 100° C. for 10 minutes. An aliquot of the samples were separated by SDS-PAGE and transferred to a nitrocellulose membrane. Immunoblotting was performed according to standard procedures using anti-CDK2 primary antibody (Abcam ab32147) at 1:1000 dilution and IRDye 800CW goat anti-Rabbit secondary antibody (LICOR) and imaged using a LICOR Odyssey instrument. Blots were stained with anti-beta-Actin primary antibody (Cell Signaling Technology mAb #4970) for normalization. The normalized CDK2/Actin values were calculated as a percent of DMSO treated cells and plotted to determine the concentration at which 50% of CDK2 signal is decreased (DC50). The determination of CDK1 degradation was determined similarly using anti-CDK1 primary antibody (Abcam ab131450).

CDK2 = molecular target: T2, CDK2 (Homo sapiens, UniProt P24941); experiment: CDK2 degradation by immunoblotting in OVCAR-8 cells; conditions: 24 h
T2 construct: endogenous in cells; host or cells: OVCAR-8
Procedure: as §1, §2

CCNE1 = molecular target: T3, CCNE1 (Homo sapiens, UniProt P24864+P24941); experiment: CCNE1 degradation in MKN-1 cells by immunoblotting; conditions: 24 h, by WB, read-out: Cyclin E1 DC50, (MKN-1 by WB)
T3 construct: endogenous in cells; host or cells: MKN-1
Procedure: CCNE1 Degradation in MKN-1 Cells
Gastric cancer cell line MKN-1 were cultured in 6-well plates in complete growth medium. A serial dilution of each compound was added to individual wells from a 2× stock solution, and cells were cultured for 24 hours. Following 24-hr incubation, cells were lysed with addition of chilled RIPA buffer supplemented with protease/phosphatase inhibitors followed by incubation for 20 minutes on ice. Lysates were clarified by centrifugation and 5×SDS loading buffer was added to the supernatant followed by heating to 100° C. for 10 minutes. An aliquot of the samples were separated by SDS-PAGE and transferred to a nitrocellulose membrane. Immunoblotting was performed according to standard procedures using anti-CCNE1 primary antibody (Abcam #ab33911) at 1:1000 dilution and IRDye 800CW goat anti-Rabbit secondary antibody (LICOR) and imaged using a LICOR Odyssey instrument. Blots were stained with anti-beta-Actin primary antibody (Cell Signaling Technology mAb 43700) for normalization. The normalized CCNE1/Actin values were calculated as a percent of DMSO treated cells and plotted to determine the concentration at which 50% of CCNE1 signal is decreased.

T1 sequence (P06493 whole entry): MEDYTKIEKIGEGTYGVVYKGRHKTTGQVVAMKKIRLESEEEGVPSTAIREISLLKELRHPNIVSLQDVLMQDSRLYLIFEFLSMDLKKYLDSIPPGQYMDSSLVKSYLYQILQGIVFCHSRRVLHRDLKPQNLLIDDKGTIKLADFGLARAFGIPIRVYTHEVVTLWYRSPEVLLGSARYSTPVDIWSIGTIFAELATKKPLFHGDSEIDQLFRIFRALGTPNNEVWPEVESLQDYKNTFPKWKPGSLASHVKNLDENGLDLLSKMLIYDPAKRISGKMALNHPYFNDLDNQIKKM

| SMILES | DC50 (CDK1) | DC50 (CDK2) | DC50 (CCNE1) |
| --- | --- | --- | --- |
| CC(C)NC(=O)O[C@@H]1CC[C@H](c2cc(NC(=O)c3cnn(CCOCCOCCOCCOCCCc4ccc5c(c4)n(C)c(=O)n5C4CCC(=O)NC4=O)c3)[nH]n2)C1 (stereo partly drawn) [I-77] | > 5000 nM | 100 to 1000 nM | – |
| CC(C)NC(=O)O[C@@H]1CC[C@H](c2cc(NC(=O)c3cnn(CCCCCCCCCc4cccc5c4n(C)c(=O)n5C4CCC(=O)NC4=O)c3)[nH]n2)C1 (stereo partly drawn) [I-92] | 1000 to 5000 nM | 10 to 100 nM | – |
| CC(C)NC(=O)O[C@@H]1CC[C@H](c2cc(NC(=O)c3cnn(CCCCCCCCCCCc4ccc5c(c4)n(C)c(=O)n5C4CCC(=O)NC4=O)c3)[nH]n2)C1 (stereo partly drawn) [I-96] | > 5000 nM | 10 to 100 nM | – |
| CC(C)NC(=O)O[C@@H]1CC[C@H](c2cc(NC(=O)c3cc(COCCCCCCCCCc4cccc5c4n(C)c(=O)n5[C@H]4CCC(=O)NC4=O)nn3C)n[nH]2)C1 [I-100] | 100 to 1000 nM | < 10 nM | – |
| CC(C)NC(=O)O[C@@H]1CC[C@H](c2cc(NC(=O)Cc3cnn(CCCCCCCCCc4cccc5c4n(C)c(=O)n5C4CCC(=O)NC4=O)c3)[nH]n2)C1 (stereo partly drawn) [I-104] | 1000 to 5000 nM | 10 to 100 nM | – |
| Cc1cc(S(=O)(=O)NCCO[C@H]2CC[C@H](CN3CCC(c4ccc5c(c4)n(C)c(=O)n5C4CCC(=O)NC4=O)CC3)CC2)ccc1Nc1ncc2cc(Cl)c(=O)n(C3CCCC3)c2n1 (stereo partly drawn) [I-108] | 100 to 1000 nM | < 10 nM | < 10 nM |
| Cc1cc(S(=O)(=O)NCCOC2CCC3(CC2)CCN(CCCc2ccc4c(c2)n(C)c(=O)n4C2CCC(=O)NC2=O)CC3)ccc1Nc1ncc2ccc(=O)n(C3CCCC3)c2n1 (stereo not drawn) [I-124] | 1000 to 5000 nM | < 10 nM | – |
| Cc1cc(S(=O)(=O)NCCOC2CC3(C2)CN(CC#Cc2ccc4c(c2)n(C)c(=O)n4C2CCC(=O)NC2=O)C3)ccc1Nc1ncc2ccc(=O)n(C3CCCC3)c2n1 (stereo not drawn) [I-126] | 1000 to 5000 nM | < 10 nM | – |
| Cc1cc(S(=O)(=O)NCCOCCOCCOCCOCCCc2ccc3c(c2)n(C)c(=O)n3C2CCC(=O)NC2=O)ccc1Nc1ncc2c(C)cc(=O)n(C3CCCC3)c2n1 (stereo not drawn) [I-138] | > 5000 nM | > 5000 nM | – |
| CC(C)NC(=O)O[C@H]1CC[C@@H](c2cc(NC(=O)c3cc(COCCCCCCCCCc4ccn5c(N6CCC(=O)NC6=O)cnc5c4)nn3C)[nH]n2)C1 [I-145] | 100 to 1000 nM | < 10 nM | – |
| Cc1cc(S(=O)(=O)NCCOCCOCCCc2ccc3c(c2)n(C)c(=O)n3C2CCC(=O)NC2=O)ccc1Nc1ncc2ccc(=O)n(C3CCCC3)c2n1 (stereo not drawn) [I-146] | 1000 to 5000 nM | < 10 nM | – |
| CN[C@@H](C)C(=O)N[C@H](C(=O)N1CCC[C@H]1c1nc(C(=O)c2cccc(OCCCCCCCCCCCn3cc(C(=O)Nc4cc([C@H]5CC[C@@H](OC(=O)NC(C)C)C5)n[nH]4)cn3)c2)cs1)C1CCCCC1 [I-148, (1R,3S)-3-(5-(1-(11-(3-(2-((S)-1-((S)-2-cyclohexyl-2-((S)-2-(methylamino)propanamido)acetyl)pyrrolidin-2-yl)thiazole-4-carbonyl)phenoxy)undecyl)-1H-pyrazole-4-carboxamido)-1H-pyrazol-3-yl)cyclopentyl isopropylcarbamate] | 1000 to 5000 nM | 1000 to 5000 nM | – |
| CC(C)NC(=O)O[C@H]1CC[C@@H](c2cc(NC(=O)c3ccnn3CCN3CCN(CCOCCCc4ccc5c(c4)n(C)c(=O)n5C4CCC(=O)NC4=O)CC3)[nH]n2)C1 (stereo partly drawn) [I-151] | > 5000 nM | 1000 to 5000 nM | – |

Results, then the compound that gave them:

| DC50 (CDK1) | DC50 (CDK2) | DC50 (CCNE1) | SMILES |
| --- | --- | --- | --- |
| > 5000 nM | 10 to 100 nM | – | CC(C)NC(=O)O[C@@H]1CC[C@H](c2cc(NC(=O)c3cnn(CCOCCOCCOCCCc4ccc5c(c4)n(C)c(=O)n5C4CCC(=O)NC4=O)c3)n[nH]2)C1 (stereo partly drawn) [I-75] |
| > 5000 nM | 10 to 100 nM | – | CC(C)NC(=O)O[C@@H]1CC[C@H](c2cc(NC(=O)c3ccnn3CCOCCOCCOCCCc3ccc4c(c3)n(C)c(=O)n4C3CCC(=O)NC3=O)[nH]n2)C1 (stereo partly drawn) [I-83] |
| > 5000 nM | 10 to 100 nM | – | CC(C)NC(=O)O[C@@H]1CC[C@H](c2cc(NC(=O)c3cnn(CCCCCCCCCc4ccc5c(c4)n(C)c(=O)n5C4CCC(=O)NC4=O)c3)n[nH]2)C1 (stereo partly drawn) [I-91] |
| 1000 to 5000 nM | 10 to 100 nM | – | CC(C)NC(=O)O[C@@H]1CC[C@H](c2cc(NC(=O)c3cnn(CCCCCCCCCCCc4cccc5c4n(C)c(=O)n5C4CCC(=O)NC4=O)c3)[nH]n2)C1 (stereo partly drawn) [I-97] |
| > 5000 nM | < 10 nM | – | CC(C)NC(=O)O[C@@H]1CC[C@H](c2cc(NC(=O)c3cc(COCCCCCCCCCc4ccc5c(c4)n(C)c(=O)n5[C@H]4CCC(=O)NC4=O)nn3C)n[nH]2)C1 [I-99] |
| 100 to 1000 nM | < 10 nM | – | CC(C)NC(=O)O[C@@H]1CC[C@H](c2cc(CC(=O)c3cc(COCCCCCCCc4cccc5c4n(C)c(=O)n5C4CCC(=O)NC4=O)nn3C)[nH]n2)C1 (stereo partly drawn) [I-101] |
| 100 to 1000 nM | 10 to 100 nM | – | CC(C)NC(=O)O[C@@H]1CC[C@H](c2cc(NC(=O)Cc3cnn(CCCCCCCCCc4ccc5c(c4)n(C)c(=O)n5C4CCC(=O)NC4=O)c3)[nH]n2)C1 (stereo partly drawn) [I-102] |
| > 5000 nM | 10 to 100 nM | – | CC(C)NC(=O)O[C@@H]1CC[C@H](c2cc(NC(=O)Cc3cnn(CCCCCCCc4ccc5c(c4)n(C)c(=O)n5C4CCC(=O)NC4=O)c3)n[nH]2)C1 (stereo partly drawn) [I-103, (1R,3S)-3-(3-(2-(1-(7-(1-(2,6-dioxopiperidin-3-yl)-3-methyl-2-oxo-2,3-dihydro-1H-benzo[d]imidazol-5-yl)heptyl)-1H-pyrazol-4-yl)acetamido)-1H-pyrazol-5-yl)cyclopentyl isopropylcarbamate] |
| 100 to 1000 nM | < 10 nM | < 10 nM | Cc1cc(S(=O)(=O)NCCO[C@H]2CC[C@H](CN3CCC(c4ccc5c(c4)n(C)c(=O)n5C4CCC(=O)NC4=O)CC3)CC2)ccc1Nc1ncc2ccc(=O)n(C3CCCC3)c2n1 (stereo partly drawn) [I-109] |
| 1000 to 5000 nM | < 10 nM | – | Cc1cc(S(=O)(=O)N[C@H]2CC[C@H](OCCOCCCc3ccc4c(c3)n(C)c(=O)n4C3CCC(=O)NC3=O)CC2)ccc1Nc1ncc2ccc(=O)n(C3CCCC3)c2n1 (stereo partly drawn) [I-110] |
| 1000 to 5000 nM | 10 to 100 nM | – | Cc1cc(S(=O)(=O)NCCOC2CC3(C2)CN(Cc2ccc4c(c2)n(C)c(=O)n4C2CCC(=O)NC2=O)C3)ccc1Nc1ncc2ccc(=O)n(C3CCCC3)c2n1 (stereo not drawn) [I-111] |
| 1000 to 5000 nM | < 10 nM | – | Cc1cc(S(=O)(=O)N2CCC(CN(C)C3CCN(c4cccc5c4n(C)c(=O)n5C4CCC(=O)NC4=O)CC3)CC2)ccc1Nc1ncc2ccc(=O)n(C3CCCC3)c2n1 (stereo not drawn) [I-114] |
| 100 to 1000 nM | < 10 nM | < 10 nM | Cc1cc(S(=O)(=O)NCCO[C@H]2CC[C@H](N(C)CC3CCN(c4ccc5c(c4)n(C)c(=O)n5C4CCC(=O)NC4=O)CC3)CC2)ccc1Nc1ncc2ccc(=O)n(C3CCCC3)c2n1 (stereo partly drawn) [I-117] |
| > 5000 nM | > 5000 nM | – | Cc1cc(S(=O)(=O)NCCOCCOCCOCCOCC(=O)N[C@H](C(=O)N2C[C@H](O)C[C@H]2C(=O)NCc2ccc(-c3scnc3C)cc2)C(C)(C)C)ccc1Nc1ncc2ccc(=O)n(C3CCCC3)c2n1 [I-139] |
| > 5000 nM | 10 to 100 nM | – | CC(C)NC(=O)O[C@@H]1CC[C@H](c2cc(NC(=O)c3cnn(CCCCCCCCCCCc4ccn5c(N6CCC(=O)NC6=O)cnc5c4)c3)[nH]n2)C1 [I-142] |
| > 5000 nM | 10 to 100 nM | – | CC(C)NC(=O)O[C@H]1CC[C@@H](c2cc(NC(=O)c3ccnn3CCOCCOCCOCCOCCCc3ccc4c(c3)n(C)c(=O)n4C3CCC(=O)NC3=O)n[nH]2)C1 (stereo partly drawn) [I-149] |
| > 5000 nM | > 5000 nM | – | Cc1cc(S(=O)(=O)NCCOCCOCCCc2ccc3c(c2)n(C)c(=O)n3C2CCC(=O)NC2=O)ccc1Nc1ncc2c(n1)N(C1CCCC1)C(=O)C21CC1 (stereo not drawn) [I-150] |

From patent US12097261B2, “CDK2 degraders and uses thereof” (Kymera Therapeutics, Inc., priority 2021, dated 2024)
